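Where inhibition never reached the appropriate level, the endpoint shown equals the highest concentration tested. Otherwise, values were interpolated linearly from a five-concentration, 48-hour dose response in 96-well plates. Here, GI50 denotes the concentration required for 50% inhibition of growth. TGI is the concentration that stops growth completely.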
Experiments:
Experiment in all cases: DTP human tumour cell line panel, 48 h
[1] = system: HOP-62 NSCLC
[2] = system: UACC-62 melanoma
[3] = system: BT-549 breast
[4] = system: M14 melanoma
[5] = system: MCF7 breast
[6] = system: MDA-MB-435
[7] = system: K-562 leukemia
[8] = system: HL-60(TB) leukemia
[9] = system: UO-31 renal
[10] = system: CAKI-1 renal
[11] = system: OVCAR-8 ovarian
[12] = system: ACHN renal
[13] = system: A549 NSCLC
[14] = system: U251 CNS
[15] = system: RXF 393 renal
[16] = system: T-47D breast
[17] = system: 786-0 renal
[18] = system: IGROV1 ovarian
[19] = system: NCI-H522 lung
[20] = system: NCI/ADR-RES ovarian
[21] = system: UACC-257 melanoma
[22] = system: NCI-H23 lung
[23] = system: COLO 205 colon
[24] = system: DU-145 prostate
[25] = system: SF-295 CNS
[26] = system: TK-10 renal
[27] = system: SK-MEL-28 melanoma
[28] = system: EKVX NSCLC
[29] = system: MDA-MB-231 breast
[30] = system: SW-620 colon
[31] = system: SNB-19 CNS
[32] = system: OVCAR-3 ovarian
[33] = system: KM12 colon
[34] = system: HCT-116 colon
[35] = system: SK-OV-3 ovarian
[36] = system: HCC-2998 colon
[37] = system: PC-3 prostate
[38] = system: OVCAR-5 ovarian
[39] = system: HCT-15 colon
[40] = system: OVCAR-4 ovarian
[41] = system: SK-MEL-5 melanoma
[42] = system: SN12C renal
[43] = system: HS 578T breast
[44] = system: RPMI-8226 leukemia
[45] = system: SR leukemia
[46] = system: LOX IMVI melanoma
[47] = system: SK-MEL-2 melanoma
[48] = system: NCI-H460 lung
[49] = system: HOP-92 NSCLC
[50] = system: SF-539 CNS
[51] = system: SF-268 CNS

Fc1ccc(Nc2nc3ccccc3c3occc23)cc1
GI50 [1]: 2.31 µM | TGI [1]: 13.8 µM | GI50 [2]: 12.3 µM | TGI [2]: 24.8 µM | GI50 [3]: 15.6 µM | TGI [3]: 28.9 µM | GI50 [4]: 0.873 µM | TGI [4]: 13.7 µM | GI50 [5]: 3.39 µM | TGI [5]: 18.5 µM | GI50 [6]: 4.02 µM | TGI [6]: 15.6 µM | GI50 [7]: 3.66 µM | TGI [7]: > 100 µM | GI50 [8]: 10.8 µM | TGI [8]: 36.8 µM | GI50 [9]: 12.4 µM | TGI [9]: 27.8 µM | GI50 [10]: 1.89 µM | TGI [10]: 5.24 µM | GI50 [11]: 11.2 µM | TGI [11]: 31.5 µM | GI50 [12]: 1.4 µM | TGI [12]: 15.8 µM | GI50 [13]: 8.99 µM | TGI [13]: 23.2 µM | GI50 [14]: 12.3 µM | TGI [14]: 24.7 µM | GI50 [15]: 12.6 µM | TGI [15]: 31.5 µM | GI50 [16]: 0.135 µM | GI50 [17]: 1.03 µM | TGI [17]: 10.6 µM | GI50 [18]: 2.62 µM | TGI [18]: 35.1 µM | GI50 [19]: 13.7 µM | TGI [19]: 27.8 µM | GI50 [20]: 2.48 µM | TGI [20]: 13 µM | GI50 [21]: 13.8 µM | TGI [21]: 28.3 µM | GI50 [22]: 1.48 µM | TGI [22]: 4.86 µM | GI50 [23]: 3.3 µM | TGI [23]: 12.9 µM | GI50 [24]: 14.4 µM | TGI [24]: 27.5 µM | GI50 [25]: 3.39 µM | TGI [25]: 13.1 µM | GI50 [26]: 2.06 µM | TGI [26]: 6.67 µM | GI50 [27]: 2.45 µM | TGI [27]: 16.6 µM | GI50 [28]: 15.2 µM | TGI [28]: 29.5 µM | GI50 [29]: 1.07 µM | TGI [29]: 19.9 µM | GI50 [30]: 17 µM | TGI [30]: 30.7 µM | GI50 [31]: 7.96 µM | TGI [31]: 24.1 µM | GI50 [32]: 1.48 µM | TGI [32]: 12.1 µM | GI50 [33]: 1.9 µM | TGI [33]: 6.23 µM | GI50 [34]: 0.13 µM | TGI [34]: 2.41 µM | GI50 [35]: 5.16 µM | TGI [35]: 18.4 µM | GI50 [36]: 1.96 µM | TGI [36]: 7.31 µM | GI50 [37]: 7.07 µM | TGI [37]: 20 µM | GI50 [38]: 10.1 µM | TGI [38]: 21.8 µM | GI50 [39]: 9.58 µM | TGI [39]: 21.4 µM | GI50 [40]: 6 µM | TGI [40]: 25.5 µM | GI50 [41]: 16.5 µM | TGI [41]: 30.1 µM | GI50 [42]: 12.9 µM | TGI [42]: 27.2 µM | GI50 [43]: 14.3 µM | TGI [43]: 33.1 µM | GI50 [44]: 3.56 µM | TGI [44]: 15 µM | GI50 [45]: 2.24 µM | TGI [45]: 16.4 µM | GI50 [46]: 3.41 µM | TGI [46]: 17.9 µM | GI50 [47]: 11.9 µM | TGI [47]: 27.6 µM | GI50 [48]: 4.61 µM | TGI [48]: 19 µM | GI50 [49]: 5.8 µM | TGI [49]: 19.4 µM | GI50 [50]: 19.3 µM | TGI [50]: 33.7 µM | GI50 [51]: 7.54 µM | TGI [51]: 24.1 µM

Source: PubChem BioAssay (NCI)
